# Laboratory results reported in patent EP2527351B1, “Lipophosphonoxins, method of their preparation and use” (priority 2011, dated 2012).
# What was measured:
# [1] = tested on: Mycobacterium tuberculosis strains; details: drug-susceptible strains, in vitro; cited from earlier work
# mice = details: mouse, in vivo; cited from earlier work
# [2] = tested on: Giardia trophozoite growth; details: cited from earlier work
# cyst formation = details: cited from earlier work
# S. epidermidis 8700/B = experiment: Microdilution MIC, resistant strain; details: methicilin-resistant strain, 24/48 hours at 37°C
# Protocol: (§2) Antimicrobial activity is assessed using the standard microdilution method determining the minimum inhibitory concentration (MIC) of the tested samples leading to inhibition of bacterial growth. Disposable microtitration plates are used for the tests. The samples were diluted in brain heart infusion broth (Himedia, Laboraties Pvt. Ltd., ? eská republika) and Mueller-Hinton broth (HiMedia Laboraties, see above) to yield a concentration range between 200 µg/ml and 1.5625 µg/ml. The plates are inoculated with a standard amount of the tested microbe - the inoculum density in each well is equal to 10^5-6 CFU/ml. The MIC is read after 24/48 hours of incubation at 37°C as the minimum inhibitory concentration of the tested substance that inhibits the growth of the bacterial strains.
# (§3) Standard reference bacterial strains (E. faecalis CCM 4224, S. aureus CCM 4223) from the Czech Collection of Microorganisms (CCM), Faculty of Science, Masaryk University Brno, S. agalactiae, B. subtilis, methicilin-resistant S. aureus 4591, fluoroquinolone-resistant S. haemolyticus 16568, vancomycin-resistant E. faecium VanA419/ana and methicilin-resistant S. epidermidis 8700/B strains obtained from the Teaching Hospital Olomouc were used. All tested microorganisms were stored in cryotubes (ITEST plus, Czech Republic) at -80°C. […]
# E. faecium VanA 419/ana = experiment: Microdilution MIC, resistant strain; details: vancomycin-resistant strain, 24/48 hours at 37°C
# Protocol: as §2, §3
# [3] = tested on: normal erythroid progenitor cells; experiment: CellTiter-Blue Cell Viability Assay; format: cell-based, Human; details: 48 hours of incubation
# Protocol: Human immature erythroid progenitors isolated from umbilical cord blood are cultivated in the StemSpan serum-free medium (StemCell Technologies) in the presence of the stem cell factor (SCF, 100 ng/ml), erythropoetin (EPO, 33.34 nkat/ml) and dexamethasone (1 µmol.l^-1) (Panzenbock et al. 1998). Cells are plated at 25000 cells/well/20 µl in 384-well plates immediately before addition of lipophosphonoxine compound from particular examples. After 48 hours of incubation at 37 °C in 5% CO2 viability is determined by using the commercial CellTiter-Blue® Cell Viability Assay (Promega, Cat.# G8082). The assay is based on the ability of living cells to convert a redox dye (resazurin) into a fluorescent end product (resorufin). […] The homogeneous assay procedure involves adding the single reagent directly to cells cultured in serum-supplemented medium. After an incubation step, data are recorded.
# (§1) The fluorescence intensity is measured using the EnVision plate reader (PerkinElmer). Data are analyzed using GraphPad Prism 5.0 statistical software.
# [4] = tested on: normal human erythroid progenitor cells; experiment: CytoTox-ONE Homogeneous Membrane Integrity Assay (LDH release); format: cell-based; details: cytotoxicity, CytoToxOne, after 4 hours
# Protocol: Human immature erythroid progenitors isolated from umbilical cord blood are cultivated in the StemSpan serum-free medium (StemCell Technologies) in the presence of the stem cell factor (SCF, 100 ng/ml), erythropoetin (EPO, 33.34 nkat/ml) and dexamethasone (1 µmol.l^-1) (Panzenbock et al. 1998). Cells are plated at 25000 cells/well/20 µl in 384-well plates immediately before addition of lipophosphonoxine compound from particular examples. After 48 hours of incubation at 37 °C in 5% CO2 viability is determined by using the commercial CellTiter-Blue® Cell Viability Assay (Promega, Cat.# G8082). […] After an incubation step, data are recorded.
# Cytotoxicity is determined after 4 hours at 37 °C in 5% CO2 using commercial CytoTox-ONE™ Homogeneous Membrane Integrity Assay (Promega, Cat.# G7892), a fluorometric method for estimating the number of non-viable cells present in multiwell plates. […] LDH released into the culture medium is measured with a 10-minute coupled enzymatic assay that results in the conversion of resazurin into a fluorescent resorufin product. The amount of fluorescence produced is proportional to the number of lysed cells.
# as §1
# S. haemolyticus 16568 = experiment: Microdilution MIC, resistant strain; details: fluoroquinolone-resistant strain, 24/48 hours at 37°C
# Protocol: as §2, §3
# S. aureus MRSA 4591 = experiment: Microdilution MIC, resistant strain; details: methicilin-resistant strain, 24/48 hours at 37°C
# Protocol: as §2, §3
# B. subtilis = experiment: Microdilution MIC, reference strain; details: read after 24/48 hours at 37°C
# Protocol: as §2
# (§4) Standard reference bacterial strains (E. faecalis CCM 4224, S. aureus CCM 4223) from the Czech Collection of Microorganisms (CCM), Faculty of Science, Masaryk University Brno, S. agalactiae, B. subtilis, methicilin-resistant S. aureus 4591, fluoroquinolone-resistant S. haemolyticus 16568, vancomycin-resistant E. faecium VanA419/ana and methicilin-resistant S. epidermidis 8700/B strains obtained from the Teaching Hospital Olomouc were used. All tested microorganisms were stored in cryotubes (ITEST plus, Czech Republic) at -80°C.
# S.agalactiae = experiment: Microdilution MIC, reference strain; details: read after 24/48 hours at 37°C
# Protocol: as §2, §4
# E. faecalis CCM 4224 = experiment: Microdilution MIC, reference strain; details: read after 24/48 hours at 37°C
# Protocol: as §2, §4
Compound,MIC S. epidermidis 8700/B (S. epidermidis 8700/B),MIC E. faecium VanA 419/ana (E. faecium VanA 419/ana),IC50 [3],[Max. safety concentration] [3],MIC B. subtilis (B. subtilis),MIC S.agalactiae (S.agalactiae),MIC E. faecalis CCM 4224 (E. faecalis CCM 4224),also measured
caprazamycins [CPZs],,,,,,,,MIC [1]: 3.13 mg/L; toxicity in mice (mice): no significant toxicity
O=c1ccn([C@@H]2O[C@H](COP(=O)(O)CCN3C[C@@H](O)[C@H](O)C3)[C@@H](O)[C@H]2O)c(=O)[nH]1 [phosphonoxin],,,,,,,,vegetative growth [2]: potently inhibited; cyst formation (cyst formation): did not specifically inhibit
"CCCCCCCCCCCCCCOP(=O)(CCN1C[C@@H](O)[C@H](O)C1)OC[C@H]1O[C@@H](n2ccc(=O)[nH]c2=O)[C@H](O)[C@@H]1O (stereo partly drawn) [Example 17, Tetradecyl uridin-5'-yl 2-([3R,4R]-3,4-dihydroxypyrrolidin-l-N-yl)ethylphosphonate]","12,5 µg/ml","12,5 µg/ml",47 mg/L,31 µg/mL,"6,25 µg/ml","6,25 µg/ml","12,5 µg/ml","EC50 [4]: 302 mg/L; [Max. safety concentration] [4]: 125 µg/mL; MIC S. haemolyticus 16568 (S. haemolyticus 16568): 12,5 µg/ml; MIC S. aureus MRSA 4591 (S. aureus MRSA 4591): 25 mg/L"
"Hexadecyloxypropyl uridin-5'-yl 2-([3R,5R]-3,4-dihydroxypiperidin-1-N-yl)ethylphosphonate [Example 13]",,,45 mg/L,15 µg/mL,,"6,25 µg/ml",,
"Hexadecyloxypropyl uridin-5'-yl 2-([3R,4S,5S]-3,4-trihydroxypiperidin-1-N-yl)ethyl-phosphonate [Example 12]",,,141 mg/L,62 µg/mL,,"12,5 µg/ml",,
"Hexadecyloxypropyl uridin-5'-yl 2-([3R,5R]-3,4-dihydroxypiperidin-1-N-yl)ethyl-phosphonate [Example 11]","6,25 µg/ml","6,25 µg/ml",40 mg/L,31 µg/mL,"6,25 µg/ml","6,25 µg/ml","12,5 µg/ml",
